A short description of data set [1]: Ligand charge of maytansinoid conjugates. Type of data set: physicochemical.
A further data set deals with human SSTR2 (Homo sapiens, UniProt P30874). In words: Radioligand-receptor binding assay, [125I] somatostatin, membranes from SSTR2 expressing CHO-K1 cells. Here is the method:
These conjugates were also assessed in an in vitro assay evaluating binding to the somatostatin receptor 2 (SSTR2). A radioligand-receptor binding assay was conducted at Eurofins Panlabs (Taiwan) to determine the affinity of conjugates described herein to the SSTR2. The assay measures binding of radiolabeled ligand, [^125I] labeled somatostatin, to human SSTR2 using membrane preparations from SSTR2 expressing CHO-K1 cells. Membranes were incubated with radiolabeled somatostatin (0.03 nM) in the presence of conjugate/compound starting at a dose of 10 uM using 6× serial dilutions to obtain a 10-pt curve. After a four hour incubation, membranes were filtered and washed 3× and counted to determine the remaining [^125I] somatostatin bound to the receptor. IC50 values were determined by a non-linear, least squares regression analysis using MathIQ™ (ID Business Solutions Ltd., UK).

The test system of data set [2] is NCI-H524 (ATCC) human lung cancer cells. Type of data set: cell-based. How it is done: FIG. 1 is a graph of various conjugates represented as bars and showing on the Y-axis their activity in an H524 proliferation assay with and without competition by octreotide. […] This illustrates the suprprising finding that only maytansinoid conjugates show activity that is dependent on the receptor.
Conjugates were assessed in an in vitro assay evaluating inhibition of cell proliferation. NCI-H524 (ATCC) human lung cancer cells were plated in 96 well, V-bottomed plates (Costar) at a concentration of 5,000 cells/well and 24 hours later were treated with compound for 6 hours and further incubated 66 hours. Compound starting dose was 20 μM and three fold serial dilutions were done for a total of ten points. After 6 hours of treatment, cells were spun down, the drug containing media was removed, and fresh complete medium was added and used to resuspend the cells, which were spun again. After removal of the wash media, the cells were resuspended in complete medium, then transferred into white walled, flat bottomed 96 well plates. […] Proliferation was measured using CellTiter Glo reagent using the standard protocol (Promega) and a Glomax multi+detection system (Promega). Percent proliferation inhibition was calculated using the following formula: % inhibition=(control-treatment)/control*100. Control is defined as vehicle alone. IC50 curves were generated using the nonlinear regression analysis (four parameter) with GraphPad Prism 6.
Conjugates were tested for their activity dependence on the somatostatin receptor. Active agent Z in the conjugate was selected from auristatin, carbazitaxel, DM1, doxorubicin, platinum, SN-38 and vinblastine. Active agent Z is connected to octreotide with various linkers. Proliferation IC50 values of the conjugates were measured. Proliferation IC50 values of the conjugates without octreotide competition were also measured. The ratio of IC50 with octreotide competition and IC50 without octreotide competition is an indicator of whether activity is at least particially dependent on bind to the somatostatin receptor. […] Therefore, the activity of conjugates comprising DM1 is dependent on the binding to the somatostatin receptor.

[3] abbreviates: read-out: H524 IC50 6 h, 6 hours treatment, further 66 hours incubation.
Setting [4] is: read-out: H524 IC50 with 100 μM octreotide 6 h, with 100 μM octreotide competition, 6 h treatment.

Like-named read-outs stand apart in the source and are kept apart here.

human SSTR2, sequence (P30874 whole entry): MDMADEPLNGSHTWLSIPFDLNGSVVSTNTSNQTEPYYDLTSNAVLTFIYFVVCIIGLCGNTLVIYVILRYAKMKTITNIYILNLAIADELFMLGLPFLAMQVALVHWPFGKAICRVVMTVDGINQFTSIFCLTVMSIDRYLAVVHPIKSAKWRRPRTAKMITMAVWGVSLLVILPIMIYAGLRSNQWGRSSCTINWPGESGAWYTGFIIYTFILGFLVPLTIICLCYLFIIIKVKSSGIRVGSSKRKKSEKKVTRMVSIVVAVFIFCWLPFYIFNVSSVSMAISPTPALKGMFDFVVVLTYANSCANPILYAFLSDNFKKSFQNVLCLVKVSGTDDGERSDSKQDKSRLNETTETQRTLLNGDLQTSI

What is called Ki is the dissociation constant of the complex between target and ligand, obtained from inhibition or displacement. Low values mean tighter binding, high ones weaker binding. One may read the IC50 as the midpoint of a concentration-inhibition curve. `COc1cc2cc(c1Cl)N(C)C(=O)C[C@H](OC(=O)[C@H](C)N(C)C(=O)CCSSC[C@H](NC(=O)[C@@H]1CSSC[C@H](NC(=O)[C@@H](Cc3ccccc3)NC(=O)C(F)(F)F)C(=O)N[C@@H](Cc3ccc(O)cc3)C(=O)N[C@H](Cc3c[nH]c4ccccc34)C(=O)N[C@@H](CCCCN)C(=O)N[C@@H]([C@@H](C)O)C(=O)N1)C(N)=O)[C@]1(C)O[C@H]1[C@H](C)[C@@H]1C[C@@](O)(NC(=O)O1)[C@H](OC)/C=C/C=C(\C)C2` [Conjugate 29]: the Ligand charge result in data set [1] was “+1”. This compound came in with a Ki on human SSTR2 of 0.23 nM. In addition, the IC50 in data set [2] (setting [3]) came out at 5.7 nM; in data set [2] (setting [4]), 28 nM.
On to `CCCC(=O)N[C@H](Cc1ccccc1)C(=O)N[C@H]1CSSC[C@@H](C(=O)N[C@H](C(=O)NCCSSC(C)(C)CCC(=O)N(C)[C@@H](C)C(=O)O[C@H]2CC(=O)N(C)c3cc(cc(OC)c3Cl)C/C(C)=C/C=C/[C@@H](OC)[C@@]3(O)C[C@H](OC(=O)N3)[C@@H](C)[C@@H]3O[C@@]23C)[C@@H](C)O)NC(=O)[C@H]([C@@H](C)O)NC(=O)[C@H](CCCCN)NC(=O)[C@@H](Cc2c[nH]c3ccccc23)NC(=O)[C@H](Cc2ccc(O)cc2)NC1=O` [Conjugate 3], for which, in data set [1], the Ligand charge result is listed as “+1”.
Regarding `COC(=O)N[C@H](Cc1ccccc1)C(=O)N[C@H]1CSSC[C@@H](C(=O)N[C@@H](CSSCCC(=O)N(C)[C@@H](C)C(=O)O[C@H]2CC(=O)N(C)c3cc(cc(OC)c3Cl)C/C(C)=C/C=C/[C@@H](OC)[C@@]3(O)C[C@H](OC(=O)N3)[C@@H](C)[C@@H]3O[C@@]23C)C(N)=O)NC(=O)[C@H]([C@@H](C)O)NC(=O)[C@H](CCCCN)NC(=O)[C@@H](Cc2c[nH]c3ccccc23)NC(=O)[C@H](Cc2ccc(O)cc2)NC1=O` [Conjugate 35], in data set [1], the Ligand charge entry is “+1”. Further, the Ki on human SSTR2 was determined as 0.024 nM. Further, the figures for the IC50 in data set [2] (setting [3]) and in data set [2] (setting [4]) were 27 nM and 17 nM, respectively.
With `COc1cc2cc(c1Cl)N(C)C(=O)C[C@H](OC(=O)[C@H](C)N(C)C(=O)CCSSC(C)(C)[C@H](NC(=O)[C@@H](NC(=O)[C@@H]1CSSC[C@H](NC(=O)[C@@H](Cc3ccccc3)NCc3ccccc3)C(=O)N[C@@H](Cc3ccc(O)cc3)C(=O)N[C@H](Cc3c[nH]c4ccccc34)C(=O)N[C@@H](CCCCN)C(=O)N[C@@H]([C@@H](C)O)C(=O)N1)[C@@H](C)O)C(N)=O)[C@]1(C)O[C@H]1[C@H](C)[C@@H]1C[C@@](O)(NC(=O)O1)[C@H](OC)/C=C/C=C(\C)C2` [Conjugate 17], in data set [1], the Ligand charge entry was “+2”. For the same compound, the IC50 in data set [2] (setting [3]) worked out at 8.5 nM; in data set [2] (setting [4]), 48 nM.
In the case of `COc1cc2cc(c1Cl)N(C)C(=O)C[C@H](OC(=O)[C@H](C)N(C)C(=O)CCSSC(C)(C)[C@@H](NC(=O)[C@@H]1CSSC[C@H](NC(=O)[C@@H](Cc3ccccc3)NC(=O)NCc3ccccc3)C(=O)N[C@@H](Cc3ccc(O)cc3)C(=O)N[C@H](Cc3c[nH]c4ccccc34)C(=O)N[C@@H](CCCCN)C(=O)N[C@@H]([C@@H](C)O)C(=O)N1)C(N)=O)[C@]1(C)O[C@H]1[C@H](C)[C@@H]1C[C@@](O)(NC(=O)O1)[C@H](OC)/C=C/C=C(\C)C2` [Conjugate 9], the Ligand charge entry in data set [1] was “+1”. The Ki on human SSTR2 was found to be 3.15 nM. Besides, the IC50 in data set [2] (setting [3]) was 208 nM; in data set [2] (setting [4]), 815 nM.
On to `CCNC(=O)N[C@H](Cc1ccccc1)C(=O)N[C@H]1CSSC[C@@H](C(=O)N[C@H](C(=O)N[C@@H](CSSCCC(=O)N(C)[C@@H](C)C(=O)O[C@H]2CC(=O)N(C)c3cc(cc(OC)c3Cl)C/C(C)=C/C=C/[C@@H](OC)[C@@]3(O)C[C@H](OC(=O)N3)[C@@H](C)[C@@H]3O[C@@]23C)C(N)=O)[C@@H](C)O)NC(=O)[C@H]([C@@H](C)O)NC(=O)[C@H](CCCCN)NC(=O)[C@@H](Cc2c[nH]c3ccccc23)NC(=O)[C@H](Cc2ccc(O)cc2)NC1=O` [Conjugate 36], for which the Ligand charge entry in data set [1] was “+1”. Further, the IC50 in data set [2] (setting [3]) was found to be 0.78 nM; in data set [2] (setting [4]) it was 10 nM.
`COc1cc2cc(c1Cl)N(C)C(=O)C[C@H](OC(=O)[C@H](C)N(C)C(=O)CCSSC[C@@H](NC(=O)[C@@H]1CSSC[C@H](NC(=O)[C@@H](Cc3ccccc3)NC(C)=O)C(=O)N[C@@H](Cc3ccc(O)cc3)C(=O)N[C@H](Cc3c[nH]c4ccccc34)C(=O)N[C@@H](CCCCN)C(=O)N[C@@H]([C@@H](C)O)C(=O)N1)C(N)=O)[C@]1(C)O[C@H]1[C@H](C)[C@@H]1C[C@@](O)(NC(=O)O1)[C@H](OC)/C=C/C=C(\C)C2` [Conjugate 31]: the Ligand charge entry in data set [1] is on record as “+1”. On human SSTR2, this compound had a Ki of 0.21 nM.
Turning to `CCNC(=O)N[C@H](Cc1ccccc1)C(=O)N[C@H]1CSSC[C@@H](C(=O)N[C@H](C(=O)NCCCCCN2C(=O)CC(SCCC(=O)N(C)[C@@H](C)C(=O)O[C@H]3CC(=O)N(C)c4cc(cc(OC)c4Cl)C/C(C)=C/C=C/[C@@H](OC)[C@@]4(O)C[C@H](OC(=O)N4)[C@@H](C)[C@@H]4O[C@@]34C)C2=O)[C@@H](C)O)NC(=O)[C@H]([C@@H](C)O)NC(=O)[C@H](CCCCN)NC(=O)[C@@H](Cc2c[nH]c3ccccc23)NC(=O)[C@H](Cc2ccc(O)cc2)NC1=O` (stereo partly drawn) [Conjugate 23], the Ligand charge entry in data set [1] was “+1”. Moreover, the results for the IC50 in data set [2] (setting [3]) and in data set [2] (setting [4]) were 5 nM and 124 nM, respectively.
The corresponding values for `CCNC(=O)N[C@H](Cc1ccccc1)C(=O)N[C@H]1CSSC[C@@H](C(=O)N[C@H](C(=O)N[C@H](C(N)=O)C(C)(C)SSCCC(=O)N(C)[C@@H](C)C(=O)O[C@H]2CC(=O)N(C)c3cc(cc(OC)c3Cl)C/C(C)=C/C=C/[C@@H](OC)[C@@]3(O)C[C@H](OC(=O)N3)[C@@H](C)[C@@H]3O[C@@]23C)[C@@H](C)O)NC(=O)[C@H]([C@@H](C)O)NC(=O)[C@H](CCCCN)NC(=O)[C@@H](Cc2c[nH]c3ccccc23)NC(=O)[C@H](Cc2ccc(O)cc2)NC1=O` [Conjugate 16] are “+1”, 185 nM and 516 nM.
On to `COc1cc2cc(c1Cl)N(C)C(=O)C[C@H](OC(=O)[C@H](C)N(C)C(=O)CCSSCCNC(=O)CC[C@H]1C(=O)N[C@@H](Cc3ccc(O)cc3)C(=O)N[C@H](Cc3c[nH]c4ccccc34)C(=O)N[C@@H](CCCCNC(=O)NCCCCCCN)C(=O)N[C@@H]([C@@H](C)O)C(=O)N[C@@H](Cc3ccccc3)C(=O)N1C)[C@]1(C)O[C@H]1[C@H](C)[C@@H]1C[C@@](O)(NC(=O)O1)[C@H](OC)/C=C/C=C(\C)C2` [Conjugate 55], for which, in data set [1], the Ligand charge entry is given as “+1”. The compound further returned a Ki at human SSTR2 of 110 nM.
With `C[C@@H](O)[C@@H]1NC(=O)[C@H](CCCCN)NC(=O)[C@@H](Cc2c[nH]c3ccccc23)NC(=O)[C@H](Cc2ccccc2)NC(=O)[C@@H](NC(=O)[C@H](N)Cc2ccccc2)CSSC[C@@H](C(=O)N[C@H](CO)[C@@H](C)O)NC1=O` [Octreotide, H2N-D-Phe-Cys-Phe-D-Trp-Lys-Thr-Cys-Thr-ol (disulfide bridge Cys2-Cys7), reference compound], the “effect on cell proliferation” value in data set [2] (octreotide alone) is “no significant effect”.
For `CCNC(=O)N[C@H](Cc1ccccc1)C(=O)N[C@H]1CSSC[C@@H](C(=O)N[C@H](C(=O)N2CCCCC2)C(C)(C)SSCCC(=O)N(C)[C@@H](C)C(=O)O[C@H]2CC(=O)N(C)c3cc(cc(OC)c3Cl)C/C(C)=C/C=C/[C@@H](OC)[C@@]3(O)C[C@H](OC(=O)N3)[C@@H](C)[C@@H]3O[C@@]23C)NC(=O)[C@H]([C@@H](C)O)NC(=O)[C@H](CCCCN)NC(=O)[C@@H](Cc2c[nH]c3ccccc23)NC(=O)[C@H](Cc2ccc(O)cc2)NC1=O` [Conjugate 33], in data set [1], the Ligand charge result is given as “+1”. Besides, the values for the IC50 in data set [2] (setting [3]) and in data set [2] (setting [4]) were 265 nM and 462 nM, respectively.
Take `COc1cc2cc(c1Cl)N(C)C(=O)C[C@H](OC(=O)[C@H](C)N(C)C(=O)CCSC1CC(=O)N(CCCCCNC(=O)[C@@H](NC(=O)[C@@H]3CSSC[C@H](NC(=O)[C@@H](Cc4ccccc4)NC(=O)NC4CCCCC4)C(=O)N[C@@H](Cc4ccc(O)cc4)C(=O)N[C@H](Cc4c[nH]c5ccccc45)C(=O)N[C@@H](CCCCN)C(=O)N[C@@H]([C@@H](C)O)C(=O)N3)[C@@H](C)O)C1=O)[C@]1(C)O[C@H]1[C@H](C)[C@@H]1C[C@@](O)(NC(=O)O1)[C@H](OC)/C=C/C=C(\C)C2` (stereo partly drawn) [Conjugate 22]: in data set [1], the Ligand charge result is recorded as “+1”. The IC50 in data set [2] (setting [3]) came out at 2.6 nM; in data set [2] (setting [4]) it was 94 nM.

For the origin of these results see patent publication US20190125888A1, “TARGETED CONJUGATES AND PARTICLES AND FORMULATIONS THEREOF” (priority 2015, published 2019).
